Data: patent US20230085307A1, “PYRIDAZINONE COMPOUND AND HERBICIDE” (NISSAN CHEMICAL CORPORATION, priority 2019, published 2023)

System: persian speedwell
Experiment: Test Example 4: herbicidal effect by soil treatment (Table 19, symbol R)
Format: in vivo, Persian speedwell (Veronica persica)
Conditions: amount of applied herbicide 320 g/ha
How it was run: (§1)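 Herbicidal effect was rated 3 weeks after treatment, using the scoring criteria of an earlier test. The compound, formulated as an emulsion and diluted in water to a set herbicide amount, had been sprayed uniformly on soil over freshly sown seeds. Growth took place in a greenhouse at 25° C. to 30° C.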

SMILES | R: persian speedwell, herbicidal effect grade
COc1ccccc1-c1sc2cc(C)c(C)cc2c1-c1c(O)c(C)nn(C)c1=O [5-090] | 1 (Herbicidal rate of 5% or more and less than 20%)
CCCC(=O)Oc1c(C)nn(C)c(=O)c1-c1c(-c2ccccc2OCC)sc2cc(C)c(C)cc12 [5-095] | 3 (Herbicidal rate of 40% or more and less than 70%)

System: blackgrass
Experiment: Test Example 5: herbicidal effect by foliage application, plastic box (Table 20, symbol J)
Format: in vivo, blackgrass (Alopecurus myosuroides)
Conditions: foliage application, 320 g/ha, three weeks after application
How it was run: (§2)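 Foliar spray test: emulsion formulation diluted in water to a set application rate, sprayed onto 14-day-old plants raised in diluvial soil at 25° C to 30° C under glass. Both herbicidal effect and crop effect rated visually three weeks later.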

SMILES | herbicidal effect on blackgrass (J)
COc1ccccc1-c1sc2cc(C)c(C)cc2c1-c1c(O)c(C)nn(C)c1=O [5-090] | 4 (Herbicidal rate of 70% or more and less than 90%)
CCCC(=O)Oc1c(C)nn(C)c(=O)c1-c1c(-c2ccccc2OCC)sc2cc(C)c(C)cc12 [5-095] | 4 (Herbicidal rate of 70% or more and less than 90%)

System: windgrass
Experiment: Test Example 4: herbicidal effect by soil treatment (Table 19, symbol L)
Format: in vivo, windgrass (Apera spica-venti)
Conditions: amount of applied herbicide 320 g/ha
How it was run: as §1

SMILES | L: windgrass, herbicidal effect grade
COc1ccccc1-c1sc2cc(C)c(C)cc2c1-c1c(O)c(C)nn(C)c1=O [5-090] | 3 (Herbicidal rate of 40% or more and less than 70%)
CCCC(=O)Oc1c(C)nn(C)c(=O)c1-c1c(-c2ccccc2OCC)sc2cc(C)c(C)cc12 [5-095] | 0 (Herbicidal rate of 5% or less (almost no effect))

System: Italian ryegrass
Experiment: Test Example 4: herbicidal effect by soil treatment (Table 19, symbol K)
Format: in vivo, Italian ryegrass (Lolium multiflorum)
Conditions: amount of applied herbicide 320 g/ha
How it was run: as §1

SMILES | K: Italian ryegrass, herbicidal effect grade
COc1ccccc1-c1sc2cc(C)c(C)cc2c1-c1c(O)c(C)nn(C)c1=O [5-090] | 5 (Herbicidal rate of 90% or more (almost completely withered))
CCCC(=O)Oc1c(C)nn(C)c(=O)c1-c1c(-c2ccccc2OCC)sc2cc(C)c(C)cc12 [5-095] | 0 (Herbicidal rate of 5% or less (almost no effect))

System: velvetleaf
Experiment: Test Example 5: herbicidal effect by foliage application, plastic box (Table 20, symbol M)
Format: in vivo, velvetleaf (Abutilon theophrasti)
Conditions: foliage application, 320 g/ha, three weeks after application
How it was run: as §2

SMILES | herbicidal effect on velvetleaf (M)
COc1ccccc1-c1sc2cc(C)c(C)cc2c1-c1c(O)c(C)nn(C)c1=O [5-090] | 5 (Herbicidal rate of 90% or more (almost completely withered))
CCCC(=O)Oc1c(C)nn(C)c(=O)c1-c1c(-c2ccccc2OCC)sc2cc(C)c(C)cc12 [5-095] | 4 (Herbicidal rate of 70% or more and less than 90%)

System: wild oat
Experiment: Test Example 4: herbicidal effect by soil treatment (Table 19, symbol I)
Format: in vivo, wild oat (Avena fatua)
Conditions: amount of applied herbicide 320 g/ha
How it was run: as §1

SMILES | I: wild oat, herbicidal effect grade
COc1ccccc1-c1sc2cc(C)c(C)cc2c1-c1c(O)c(C)nn(C)c1=O [5-090] | 0 (Herbicidal rate of 5% or less (almost no effect))
CCCC(=O)Oc1c(C)nn(C)c(=O)c1-c1c(-c2ccccc2OCC)sc2cc(C)c(C)cc12 [5-095] | 0 (Herbicidal rate of 5% or less (almost no effect))

System: rice flat sedge
Experiment: Test Example 3: herbicidal effect by foliage application, Wagner pot (Table 18, symbol E)
Format: in vivo, rice flat sedge (Cyperus iria)
Conditions: 320 g/ha
How it was run: (§3)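 Plants were sown in alluvial soil held under 0.1–0.5 cm standing water and grown 14 days in a greenhouse at 25–30 °C. An emulsifiable formulation, water-diluted to the set dose, was then sprayed onto the foliage, and effects were scored three weeks later using previously defined criteria.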

SMILES | herbicidal effect on rice flat sedge (E)
COc1ccccc1-c1sc2cc(C)c(C)cc2c1-c1c(O)c(C)nn(C)c1=O [5-090] | 5 (Herbicidal rate of 90% or more (almost completely withered))
CCCC(=O)Oc1c(C)nn(C)c(=O)c1-c1c(-c2ccccc2OCC)sc2cc(C)c(C)cc12 [5-095] | 4 (Herbicidal rate of 70% or more and less than 90%)

System: velvetleaf
Experiment: Test Example 4: herbicidal effect by soil treatment (Table 19, symbol M)
Format: in vivo, velvetleaf (Abutilon theophrasti)
Conditions: amount of applied herbicide 320 g/ha
How it was run: as §1

SMILES | M: velvetleaf, herbicidal effect grade
COc1ccccc1-c1sc2cc(C)c(C)cc2c1-c1c(O)c(C)nn(C)c1=O [5-090] | 0 (Herbicidal rate of 5% or less (almost no effect))
CCCC(=O)Oc1c(C)nn(C)c(=O)c1-c1c(-c2ccccc2OCC)sc2cc(C)c(C)cc12 [5-095] | 0 (Herbicidal rate of 5% or less (almost no effect))

System: oval-leafed pondweed
Experiment: Test Example 1: herbicidal activity, application before weed generation under submerged conditions (Table 16, symbol C)
Format: in vivo, oval-leafed pondweed (Monochoria vaginalis)
Conditions: amount of applied herbicide 320 g/ha
How it was run: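 Submerged Wagner pots (alluvial soil, 4 cm water) sown with weed seeds and planted with 2.5-leaf rice seedlings; emulsifiable concentrate diluted in water applied to water surface on sowing day. Held in greenhouse at 25-30 °C; injury scored 0-5 by herbicidal rate after three weeks.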

SMILES | Herbicidal effect, C: oval-leafed pondweed
COc1ccccc1-c1sc2cc(C)c(C)cc2c1-c1c(O)c(C)nn(C)c1=O [5-090] | 3 (Herbicidal rate of 40% or more and less than 70%)
CCCC(=O)Oc1c(C)nn(C)c(=O)c1-c1c(-c2ccccc2OCC)sc2cc(C)c(C)cc12 [5-095] | 4 (Herbicidal rate of 70% or more and less than 90%)

System: Italian ryegrass
Experiment: Test Example 5: herbicidal effect by foliage application, plastic box (Table 20, symbol K)
Format: in vivo, Italian ryegrass (Lolium multiflorum)
Conditions: foliage application, 320 g/ha, three weeks after application
How it was run: as §2

SMILES | herbicidal effect on Italian ryegrass (K)
COc1ccccc1-c1sc2cc(C)c(C)cc2c1-c1c(O)c(C)nn(C)c1=O [5-090] | 5 (Herbicidal rate of 90% or more (almost completely withered))
CCCC(=O)Oc1c(C)nn(C)c(=O)c1-c1c(-c2ccccc2OCC)sc2cc(C)c(C)cc12 [5-095] | 4 (Herbicidal rate of 70% or more and less than 90%)

System: green foxtail
Experiment: Test Example 4: herbicidal effect by soil treatment (Table 19, symbol G)
Format: in vivo, green foxtail (Setaria viridis)
Conditions: amount of applied herbicide 320 g/ha
How it was run: as §1

SMILES | G: green foxtail, herbicidal effect grade
COc1ccccc1-c1sc2cc(C)c(C)cc2c1-c1c(O)c(C)nn(C)c1=O [5-090] | 0 (Herbicidal rate of 5% or less (almost no effect))
CCCC(=O)Oc1c(C)nn(C)c(=O)c1-c1c(-c2ccccc2OCC)sc2cc(C)c(C)cc12 [5-095] | 0 (Herbicidal rate of 5% or less (almost no effect))

System: Japanese bulrush
Experiment: Test Example 2: herbicidal activity, application during weed generation under submerged conditions (Table 17, symbol B)
Format: in vivo, Japanese bulrush (Schoenoplectus juncoides)
Conditions: AAH 320 g/ha; application during weed generation, submerged conditions
How it was run: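 Herbicide emulsion, diluted with water to the chosen amount, is applied onto 4 cm floodwater over alluvial soil where the weeds were co-sown and raised at 25–30° C. Application timing: 1–2 leaves. Assessment: three weeks afterwards.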

SMILES | herbicidal effect rating, B: Japanese bulrush
COc1ccccc1-c1sc2cc(C)c(C)cc2c1-c1c(O)c(C)nn(C)c1=O [5-090] | 2 (Herbicidal rate of 20% or more and less than 40%)
CCCC(=O)Oc1c(C)nn(C)c(=O)c1-c1c(-c2ccccc2OCC)sc2cc(C)c(C)cc12 [5-095] | 4 (Herbicidal rate of 70% or more and less than 90%)

System: redroot pigweed
Experiment: Test Example 4: herbicidal effect by soil treatment (Table 19, symbol N)
Format: in vivo, redroot pigweed (Amaranthus retroflexus)
Conditions: amount of applied herbicide 320 g/ha
How it was run: as §1

SMILES | N: redroot pigweed, herbicidal effect grade
COc1ccccc1-c1sc2cc(C)c(C)cc2c1-c1c(O)c(C)nn(C)c1=O [5-090] | 0 (Herbicidal rate of 5% or less (almost no effect))
CCCC(=O)Oc1c(C)nn(C)c(=O)c1-c1c(-c2ccccc2OCC)sc2cc(C)c(C)cc12 [5-095] | 0 (Herbicidal rate of 5% or less (almost no effect))

System: barnyard grass
Experiment: Test Example 5: herbicidal effect by foliage application, plastic box (Table 20, symbol H)
Format: in vivo, barnyard grass (Echinochloa crus-galli)
Conditions: foliage application, 320 g/ha, three weeks after application
How it was run: as §2

SMILES | herbicidal effect on barnyard grass (H)
COc1ccccc1-c1sc2cc(C)c(C)cc2c1-c1c(O)c(C)nn(C)c1=O [5-090] | 4 (Herbicidal rate of 70% or more and less than 90%)
CCCC(=O)Oc1c(C)nn(C)c(=O)c1-c1c(-c2ccccc2OCC)sc2cc(C)c(C)cc12 [5-095] | 4 (Herbicidal rate of 70% or more and less than 90%)

System: lambsquarters
Experiment: Test Example 4: herbicidal effect by soil treatment (Table 19, symbol O)
Format: in vivo, lambsquarters (Chenopodium album)
Conditions: amount of applied herbicide 320 g/ha
How it was run: as §1

SMILES | O: lambsquarters, herbicidal effect grade
COc1ccccc1-c1sc2cc(C)c(C)cc2c1-c1c(O)c(C)nn(C)c1=O [5-090] | 0 (Herbicidal rate of 5% or less (almost no effect))
CCCC(=O)Oc1c(C)nn(C)c(=O)c1-c1c(-c2ccccc2OCC)sc2cc(C)c(C)cc12 [5-095] | 0 (Herbicidal rate of 5% or less (almost no effect))

System: Chinese sprangletop
Experiment: Test Example 3: herbicidal effect by foliage application, Wagner pot (Table 18, symbol D)
Format: in vivo, chinese sprangletop (Leptochloa chinensis)
Conditions: 320 g/ha
How it was run: as §3

SMILES | herbicidal effect on Chinese sprangletop (D)
COc1ccccc1-c1sc2cc(C)c(C)cc2c1-c1c(O)c(C)nn(C)c1=O [5-090] | 2 (Herbicidal rate of 20% or more and less than 40%)
CCCC(=O)Oc1c(C)nn(C)c(=O)c1-c1c(-c2ccccc2OCC)sc2cc(C)c(C)cc12 [5-095] | 5 (Herbicidal rate of 90% or more (almost completely withered))
